Values joined by “and” are separate entries in the source; they are usually repeats but may differ in a detail not shown here. Identical values can stand only once. Where only a bound is given, the exact number is not on record here.

This test concerns T-47D spheroids with HUVEC/MSC, viability. In words: Anticancer human tumor T-47D cell line growth inhibition [PI3K].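 As to all read-outs here: spheroids exposed to agents for seven days before reading.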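 As to viability, T/C: percent of DMSO vehicle control luminescence so 100% = untreated growth.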 To be noted: for viability, T/C: stronger effect = lower value. An excerpt: Combinatorial screen of targeted agents with the PI3K inhibitors inavolisib, alpelisib, duvelisib, and copanlisib in multi-cell type tumor spheroids
A high-throughput screen of multi-cell type tumor spheroids was designed to identify active combinations of targeted small molecules and PI3K pathway inhibitors. Complex spheroids include a stromal component modeled by human endothelial cells (HUVEC) and fibroblasts modeled by human mesenchymal stem cells (MSCs). The concentration ranges selected for each drug and investigational agent were based upon clinically achievable concentrations if the clinical Cmax of the agent was known.
Compounds. The drugs and investigational agents: inavolisib (NSC800729), alpelisib (NSC765974), duvelisib (NSC772469), copanlisib (NSC816437), ipatasertib (NSC767898), afuresertib (NSC778305), talazoparib (NSC767125), sapanisertib (NSC764658), selumetinib (NSC741078), tovorafenib (DAY101, NSC766906), vemurafenib (NSC761431), ravoxertinib (NSC781343), sotorasib (NSC818433), MRTX1133 (NSC 836407), abemaciclib (NSC 768073), palbociclib (NSC758247), venetoclax (NSC 766270), SY5609 (NSC837396), enzalutamide (NSC755605), and darolutamide (NSC825331), were obtained from the National Cancer Institute (NCI) Developmental Therapeutics Program Chemical Repository. The FDA-approved anticancer drug set is available from the NCI Developmental Therapeutics Program. […] The stock solutions were prepared in dimethyl sulfoxide (DMSO, Sigma-Aldrich, St. Louis, MO, cat. D2650) at 800-fold the tested concentration and stored at -70 degrees C prior to their use. All drugs and investigational agents were tested over a range starting from a high concentration at or near the clinical Cmax and decreasing in half-log increments. If the clinical Cmax for an agent had not been determined, the highest concentration tested was 10 microM.
Cell Culture. All cells were maintained in an incubator at 37 degrees C and 5% CO2 with 95% humidity. The PDC lines were cultured according to standard operating procedures established by the NCI PDMR (https://pdmr.cancer.gov/sops/default.htm). All PDCs were thawed and cultured in Matrigel-coated flasks prepared with a working solution of 1X Ham's F-12 nutrient mix, without supplementation (Invitrogen, Waltham, MA, cat. 11765054), 100 U/mL penicillin-streptomycin (Invitrogen, cat. 15140122), and 2.5% Matrigel (Corning Inc., Corning, NY, cat. 354248) for the first three passages. The 354836-022-R-J1-PDC, 475296-252-R-J1-PDC, and 997726-040-R-J2-PDC lines were cultured in 6A media, which includes advanced DMEM/F-12 (Thermo Fisher Scientific, cat. 12634028), 10 mM HEPES (Thermo Fisher Scientific, cat. 15630080), 1X GlutaMAX supplement (Thermo Fisher Scientific, cat. 35050061), 0.1 mg/mL primocin (InvivoGen, San Diego, CA, cat. ant-pm-2), 10% defined fetal bovine serum, heat inactivated (HyClone Laboratories Inc., Logan, UT, cat. SH30070.03HI), 50% L-WRN conditioned media (ATCC, cat. CRL-3276), 1.25 mM N-Acetyl-L-cysteine (Sigma-Aldrich, cat. A9165), 10 mM nicotinamide (Sigma-Aldrich, cat. N0636), 1X B-27 supplement (Thermo Fisher Scientific, cat. 17504044), 1X N-2 supplement (Thermo Fisher Scientific, cat. 17502048), and 10 microM Y-27632 dihydrochloride (Tocris Bioscience, Bristol, United Kingdom, cat. 1254). The 624824-186-R-J2-PDC line was cultured in 6C/Colon 1B media, which includes all 6A media components plus 50 ng/mL human EGF recombinant protein (Thermo Fisher Scientific, cat. PHG0311). […]

Turning to `Cn1cnc2c(F)c(Nc3ccc(Br)cc3Cl)c(C(=O)NOCCO)cc21` + CC(Nc1ccc2c(c1)OCCn1cc(N3C(=O)OCC3C(F)F)nc1-2)C(N)=O, the concentration for half-maximal inhibition (IC50) is greater than 3 µM (curve of first compound, second compound 0.00316 µM); greater than 3 µM (curve of first compound, second compound 0.01 µM); greater than 3 µM (curve of first compound, second compound 0.0316 µM); greater than 3 µM (curve of first compound, second compound 0.1 µM); greater than 3 µM (curve of first compound, second compound 0.316 µM); 0.294 µM (curve of first compound, second compound 1 µM). Besides, the viability, T/C (second compound 0.00316 µM, first compound 0.00949 µM) is 105%; the viability, T/C (second compound 0.00316 µM, first compound 0.03 µM) was 84.7%; the viability, T/C (second compound 0.00316 µM, first compound 0.0949 µM) is 99.8%; the viability, T/C (second compound 0.00316 µM, first compound 0.3 µM) is 91.8%; the viability, T/C (second compound 0.00316 µM, first compound 0.949 µM) was 86.1%; the viability, T/C (second compound 0.00316 µM, first compound 3 µM) was 79.2%. Besides, the viability, T/C was 97.5% (second compound 0.01 µM, first compound 0.00949 µM); 80.4% (second compound 0.01 µM, first compound 0.03 µM); 96.1% (second compound 0.01 µM, first compound 0.0949 µM); 98.8% (second compound 0.01 µM, first compound 0.3 µM); 82.3% (second compound 0.01 µM, first compound 0.949 µM); 88.5% (second compound 0.01 µM, first compound 3 µM). Moreover, the viability, T/C by setting is: (second compound 0.0316 µM, first compound 0.00949 µM) 95.5%; (second compound 0.0316 µM, first compound 0.03 µM) 80.5%; (second compound 0.0316 µM, first compound 0.0949 µM) 101%; (second compound 0.0316 µM, first compound 0.3 µM) 96.6%; (second compound 0.0316 µM, first compound 0.949 µM) 97.8%; (second compound 0.0316 µM, first compound 3 µM) 86.4%. Besides, the viability, T/C runs as follows: (second compound 0.1 µM, first compound 0.00949 µM) 85.6%; (second compound 0.1 µM, first compound 0.03 µM) 86.1%; (second compound 0.1 µM, first compound 0.0949 µM) 83.5%; (second compound 0.1 µM, first compound 0.3 µM) 90.2%; (second compound 0.1 µM, first compound 0.949 µM) 86.5%; (second compound 0.1 µM, first compound 3 µM) 83.8%. Besides, the viability, T/C is 71.3% (second compound 0.316 µM, first compound 0.00949 µM); 75.3% (second compound 0.316 µM, first compound 0.03 µM); 70.3% (second compound 0.316 µM, first compound 0.0949 µM); 66.5% (second compound 0.316 µM, first compound 0.3 µM); 71.8% (second compound 0.316 µM, first compound 0.949 µM); 61.1% (second compound 0.316 µM, first compound 3 µM). In addition, the viability, T/C is 54% (second compound 1 µM, first compound 0.00949 µM); 56.8% (second compound 1 µM, first compound 0.03 µM); 59.2% (second compound 1 µM, first compound 0.0949 µM); 49.7% (second compound 1 µM, first compound 0.3 µM); 47.8% (second compound 1 µM, first compound 0.949 µM); 52.2% (second compound 1 µM, first compound 3 µM).
In the case of `C[C@@H](NC(=O)c1ncnc(N)c1Cl)c1ncc(C(=O)Nc2cc(C(F)(F)F)c(Cl)cn2)s1`, the viability, T/C was 93.7% [middle of 4 runs] (compound 0.0316 µM); 89.2% and 106% (2×) and 91.6% (compound 0.316 µM); 99.1% [middle of 4 runs] (compound 3.16 µM); 91% [middle of 4 runs] (compound 10 µM). Also, under “curve of compound”, the IC50 is greater than 10 µM.

As a reminder, the IC50 is the concentration that inhibits the measured activity by half. A word on the viability, T/C: it is the ratio of treated to control.

Values taken from PubChem BioAssay AID1963959 (Molecular Pharmacology Branch, DTP, NCI, 2024).
